Converted amounts (≈) assume the structure as drawn. Bounds are passed on as bounds.

System in one data set: not listed separately
Kind of data set: Solubility in pH 7.4 phosphate buffer solution at 100 uM after 24 hrs by HPLC method. The format is physicochemical. The settings on record: phosphate buffer, pH 7.4.
As a reminder, the solubility is the concentration that dissolves in the medium under given conditions. A lower solubility goes with little dissolved substance. `CC(Nc1c(NCCCCCC(=O)NO)c(=O)c1=O)C12CC3CC(CC(C3)C1)C2` (stereo unspecified) registered a solubility at 24 h, 100 µM of 24 µM (≈ 9.68 µg/mL).

As for `COc1ccc(Nc2c(NCCCCCC(=O)NO)c(=O)c2=O)cc1`, the solubility at 24 h, 100 µM was found to be 3.3 µM (≈ 1.15 µg/mL).

Take `CC(C)(CCCCC(=O)NO)Nc1c(Nc2ccc(C(F)(F)F)cc2)c(=O)c1=O`: the solubility at 24 h, 100 µM was 36 µM (≈ 14.9 µg/mL).

The target of a further data set is Histone deacetylase 1 (Homo sapiens, UniProt Q13547). Kind of data set: Inhibition of human recombinant HDAC1 using Fluor de Lys as substrate after 2 hrs by fluorescence method.
Chain of Histone deacetylase 1 (Q13547 whole entry): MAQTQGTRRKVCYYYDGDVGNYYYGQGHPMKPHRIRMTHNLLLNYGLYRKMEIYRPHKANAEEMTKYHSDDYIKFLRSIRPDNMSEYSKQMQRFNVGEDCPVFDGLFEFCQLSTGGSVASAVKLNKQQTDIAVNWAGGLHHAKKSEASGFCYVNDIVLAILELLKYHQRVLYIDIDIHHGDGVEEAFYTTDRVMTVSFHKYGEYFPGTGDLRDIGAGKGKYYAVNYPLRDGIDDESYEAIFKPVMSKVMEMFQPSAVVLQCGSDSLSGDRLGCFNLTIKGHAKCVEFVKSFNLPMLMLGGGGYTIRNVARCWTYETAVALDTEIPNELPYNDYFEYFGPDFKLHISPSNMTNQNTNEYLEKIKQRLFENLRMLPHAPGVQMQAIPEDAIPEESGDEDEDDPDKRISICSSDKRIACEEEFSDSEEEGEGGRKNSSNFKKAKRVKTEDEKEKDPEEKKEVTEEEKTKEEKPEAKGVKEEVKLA
Details: not given
A word on the Ki: it is a dissociation constant, usually derived from enzyme kinetics or from competition with a known ligand. In the case of `CC(Nc1c(NCCCCCC(=O)NO)c(=O)c1=O)C12CC3CC(CC(C3)C1)C2` (stereo unspecified), the Ki came to 3.8 nM.

Consider `COc1ccc(Nc2c(NCCCCCC(=O)NO)c(=O)c2=O)cc1`, for which the Ki amounted to 0.075 nM.

`CC(C)(CCCCC(=O)NO)Nc1c(Nc2ccc(C(F)(F)F)cc2)c(=O)c1=O`: the Ki stood at 0.27 nM.

The target of a further data set is Histone deacetylase 2 (Homo sapiens, UniProt Q92769). Description: Inhibition of human recombinant HDAC2 using fluorogenic HDAC substrate after 15 mins by fluorimetrc method.
Chain of Histone deacetylase 2 (Q92769 whole entry): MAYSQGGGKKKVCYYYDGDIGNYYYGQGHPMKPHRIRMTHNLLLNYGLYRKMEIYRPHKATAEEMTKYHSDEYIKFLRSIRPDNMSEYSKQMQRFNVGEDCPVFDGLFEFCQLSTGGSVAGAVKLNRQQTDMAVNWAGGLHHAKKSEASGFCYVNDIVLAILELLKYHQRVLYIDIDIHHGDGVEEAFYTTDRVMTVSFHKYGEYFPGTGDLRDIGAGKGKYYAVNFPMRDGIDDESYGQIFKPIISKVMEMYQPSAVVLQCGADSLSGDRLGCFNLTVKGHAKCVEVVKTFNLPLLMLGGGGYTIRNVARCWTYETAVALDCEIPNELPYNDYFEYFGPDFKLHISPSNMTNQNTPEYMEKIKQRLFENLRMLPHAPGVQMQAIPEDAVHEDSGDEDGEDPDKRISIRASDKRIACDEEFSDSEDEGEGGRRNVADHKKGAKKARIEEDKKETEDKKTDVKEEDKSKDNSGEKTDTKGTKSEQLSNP
Details: not given
Turning to `CC(Nc1c(NCCCCCC(=O)NO)c(=O)c1=O)C12CC3CC(CC(C3)C1)C2` (stereo unspecified), the Ki stood at 130 nM.

Regarding `COc1ccc(Nc2c(NCCCCCC(=O)NO)c(=O)c2=O)cc1`, the Ki turned out to be 3.1 nM.

As for `CC(C)(CCCCC(=O)NO)Nc1c(Nc2ccc(C(F)(F)F)cc2)c(=O)c1=O`, the Ki stood at 23 nM.

The target of a further data set is Histone deacetylase 5 (Homo sapiens, UniProt Q9UQL6). Kind of data set: Inhibition of human recombinant HDAC5 using fluorogenic HDAC substrate class 2a after 30 mins by fluorimetrc method.
Chain of Histone deacetylase 5 (Q9UQL6 whole entry): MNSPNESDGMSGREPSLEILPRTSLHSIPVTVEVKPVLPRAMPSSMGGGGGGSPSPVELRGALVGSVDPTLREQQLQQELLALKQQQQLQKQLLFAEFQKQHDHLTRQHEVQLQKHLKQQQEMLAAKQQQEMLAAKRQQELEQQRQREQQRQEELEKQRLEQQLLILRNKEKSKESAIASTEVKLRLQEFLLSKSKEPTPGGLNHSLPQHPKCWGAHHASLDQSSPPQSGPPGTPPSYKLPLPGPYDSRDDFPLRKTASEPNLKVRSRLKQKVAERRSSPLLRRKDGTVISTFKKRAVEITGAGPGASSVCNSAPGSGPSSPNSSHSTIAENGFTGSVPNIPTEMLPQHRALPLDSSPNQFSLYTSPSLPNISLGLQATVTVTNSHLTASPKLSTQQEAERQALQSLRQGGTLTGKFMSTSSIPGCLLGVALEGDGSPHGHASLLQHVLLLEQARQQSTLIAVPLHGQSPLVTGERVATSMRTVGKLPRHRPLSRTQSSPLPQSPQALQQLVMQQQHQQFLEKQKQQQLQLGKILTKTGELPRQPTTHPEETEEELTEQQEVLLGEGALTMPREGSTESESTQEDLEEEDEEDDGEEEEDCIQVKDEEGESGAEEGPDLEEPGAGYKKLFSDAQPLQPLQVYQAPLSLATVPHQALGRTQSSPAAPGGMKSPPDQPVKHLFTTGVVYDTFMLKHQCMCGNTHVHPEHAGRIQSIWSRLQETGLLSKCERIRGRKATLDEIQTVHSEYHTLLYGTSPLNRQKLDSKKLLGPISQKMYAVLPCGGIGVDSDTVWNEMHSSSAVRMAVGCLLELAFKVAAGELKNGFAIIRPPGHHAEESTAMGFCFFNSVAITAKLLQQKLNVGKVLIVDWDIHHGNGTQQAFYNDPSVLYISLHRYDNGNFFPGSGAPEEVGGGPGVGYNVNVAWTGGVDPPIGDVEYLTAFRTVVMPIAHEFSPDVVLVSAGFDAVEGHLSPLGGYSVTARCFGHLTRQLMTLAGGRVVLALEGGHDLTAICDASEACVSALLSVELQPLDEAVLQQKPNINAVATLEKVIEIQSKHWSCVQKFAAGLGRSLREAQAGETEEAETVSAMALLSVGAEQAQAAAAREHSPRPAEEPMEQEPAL
Details: not given
With `CC(Nc1c(NCCCCCC(=O)NO)c(=O)c1=O)C12CC3CC(CC(C3)C1)C2` (stereo unspecified), the Ki amounted to 4200 nM.

`COc1ccc(Nc2c(NCCCCCC(=O)NO)c(=O)c2=O)cc1`: the Ki came out at 1000 nM.

Turning to `CC(C)(CCCCC(=O)NO)Nc1c(Nc2ccc(C(F)(F)F)cc2)c(=O)c1=O`, the Ki was 360 nM.

The next data set deals with T1, Histone deacetylase 7 (Homo sapiens, UniProt Q8WUI4).
T1 sequence (Q8WUI4 whole entry): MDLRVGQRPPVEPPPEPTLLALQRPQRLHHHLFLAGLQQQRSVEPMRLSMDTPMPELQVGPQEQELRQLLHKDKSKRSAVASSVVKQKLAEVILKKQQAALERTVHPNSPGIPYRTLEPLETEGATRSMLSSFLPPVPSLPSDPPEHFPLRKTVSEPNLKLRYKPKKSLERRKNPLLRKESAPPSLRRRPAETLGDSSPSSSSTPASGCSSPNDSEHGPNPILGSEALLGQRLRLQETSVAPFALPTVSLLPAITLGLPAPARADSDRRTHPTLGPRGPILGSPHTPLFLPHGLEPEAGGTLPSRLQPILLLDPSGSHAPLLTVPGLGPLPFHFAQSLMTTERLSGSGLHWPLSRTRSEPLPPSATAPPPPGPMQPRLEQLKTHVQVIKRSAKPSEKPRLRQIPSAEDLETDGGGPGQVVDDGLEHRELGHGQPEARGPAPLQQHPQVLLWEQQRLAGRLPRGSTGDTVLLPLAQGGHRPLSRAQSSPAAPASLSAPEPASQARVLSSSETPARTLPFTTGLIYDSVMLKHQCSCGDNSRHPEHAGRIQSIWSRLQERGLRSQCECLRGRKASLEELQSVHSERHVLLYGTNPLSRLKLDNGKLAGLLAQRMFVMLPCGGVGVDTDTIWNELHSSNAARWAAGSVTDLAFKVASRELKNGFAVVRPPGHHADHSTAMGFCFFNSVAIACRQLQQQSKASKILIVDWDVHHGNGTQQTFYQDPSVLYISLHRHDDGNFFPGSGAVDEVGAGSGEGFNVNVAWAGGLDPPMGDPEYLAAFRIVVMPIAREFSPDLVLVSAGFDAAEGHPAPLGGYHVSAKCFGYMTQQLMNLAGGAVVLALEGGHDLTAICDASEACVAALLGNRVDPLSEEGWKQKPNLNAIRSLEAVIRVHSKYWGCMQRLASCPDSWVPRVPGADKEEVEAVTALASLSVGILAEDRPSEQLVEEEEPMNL
Kind of data set: Inhibition of human recombinant HDAC7 using fluorogenic HDAC substrate class 2a after 45 mins by fluorimetrc method.
Details: not given
Consider `CC(Nc1c(NCCCCCC(=O)NO)c(=O)c1=O)C12CC3CC(CC(C3)C1)C2` (stereo unspecified), for which the Ki is more than 10000 nM.

Consider `COc1ccc(Nc2c(NCCCCCC(=O)NO)c(=O)c2=O)cc1`, for which the Ki was more than 10000 nM.

Turning to `CC(C)(CCCCC(=O)NO)Nc1c(Nc2ccc(C(F)(F)F)cc2)c(=O)c1=O`, the Ki is 1700 nM.

A further data set deals with T2, NAD-dependent protein deacetylase sirtuin-1 (Homo sapiens, UniProt Q96EB6).
T2 sequence (Q96EB6 whole entry): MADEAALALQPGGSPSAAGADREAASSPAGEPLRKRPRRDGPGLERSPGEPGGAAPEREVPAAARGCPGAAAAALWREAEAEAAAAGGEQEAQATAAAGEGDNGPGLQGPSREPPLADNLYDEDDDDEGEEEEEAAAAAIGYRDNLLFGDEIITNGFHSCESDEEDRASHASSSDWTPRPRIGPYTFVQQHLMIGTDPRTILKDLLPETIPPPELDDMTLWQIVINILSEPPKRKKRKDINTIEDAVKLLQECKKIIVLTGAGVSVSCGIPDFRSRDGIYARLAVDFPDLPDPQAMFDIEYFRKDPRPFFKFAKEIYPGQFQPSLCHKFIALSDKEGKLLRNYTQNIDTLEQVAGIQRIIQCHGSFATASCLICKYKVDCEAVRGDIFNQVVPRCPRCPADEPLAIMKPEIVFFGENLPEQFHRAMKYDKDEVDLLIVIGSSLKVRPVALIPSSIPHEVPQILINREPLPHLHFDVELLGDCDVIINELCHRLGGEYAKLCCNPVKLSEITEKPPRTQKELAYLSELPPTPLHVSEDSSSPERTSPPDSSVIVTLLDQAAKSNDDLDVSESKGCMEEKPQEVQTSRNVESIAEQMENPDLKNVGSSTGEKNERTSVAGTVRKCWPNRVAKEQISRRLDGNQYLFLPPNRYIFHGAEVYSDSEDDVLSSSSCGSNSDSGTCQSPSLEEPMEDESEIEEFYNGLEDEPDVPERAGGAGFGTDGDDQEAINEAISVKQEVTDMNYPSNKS
Kind of data set: Inhibition of human recombinant SIRT1 using fluorogenic HDAC substrate after 20 mins by fluorimetrc method.
Details: not given
`CC(Nc1c(NCCCCCC(=O)NO)c(=O)c1=O)C12CC3CC(CC(C3)C1)C2` (stereo unspecified): the Ki was more than 10000 nM.

Consider `COc1ccc(Nc2c(NCCCCCC(=O)NO)c(=O)c2=O)cc1`, for which the Ki is more than 10000 nM.

For the molecule `CC(C)(CCCCC(=O)NO)Nc1c(Nc2ccc(C(F)(F)F)cc2)c(=O)c1=O`, the Ki was more than 10000 nM.

The target of the next data set is T3, NAD-dependent protein deacetylase sirtuin-2 (Homo sapiens, UniProt Q8IXJ6).
T3 sequence (Q8IXJ6 whole entry): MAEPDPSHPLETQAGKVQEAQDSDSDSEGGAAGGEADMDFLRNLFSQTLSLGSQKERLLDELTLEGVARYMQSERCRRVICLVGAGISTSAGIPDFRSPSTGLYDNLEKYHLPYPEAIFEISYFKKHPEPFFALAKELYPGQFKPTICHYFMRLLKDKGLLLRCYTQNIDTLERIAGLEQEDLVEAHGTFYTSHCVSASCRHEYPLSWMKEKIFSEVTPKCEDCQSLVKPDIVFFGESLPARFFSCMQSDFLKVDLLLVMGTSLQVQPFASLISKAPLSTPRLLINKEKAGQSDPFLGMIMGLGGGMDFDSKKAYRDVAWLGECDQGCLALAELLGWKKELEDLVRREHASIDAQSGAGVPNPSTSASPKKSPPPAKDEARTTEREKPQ
Kind of data set: Inhibition of human recombinant SIRT2 using fluoro-lysine sirtuin 2 deacetylase substrate after 60 mins by fluorimetrc method.
Details: not given
As for `CC(Nc1c(NCCCCCC(=O)NO)c(=O)c1=O)C12CC3CC(CC(C3)C1)C2` (stereo unspecified), the Ki is more than 10000 nM.

In the case of `COc1ccc(Nc2c(NCCCCCC(=O)NO)c(=O)c2=O)cc1`, the Ki was more than 10000 nM.

As to `CC(C)(CCCCC(=O)NO)Nc1c(Nc2ccc(C(F)(F)F)cc2)c(=O)c1=O`, the Ki was more than 10000 nM.

The record behind these values is ChEMBL document CHEMBL4229543, “Squaramides as novel class I and IIB histone deacetylase inhibitors for topical treatment of cutaneous t-cell lymphoma” (Bioorg Med Chem Lett, 2018).
